# Measured values taken from paper PMC7044277 (Nature Communications, 2020).
# Values joined by “and” are separate entries in the source; they are usually repeats but may differ in a detail not shown here. Equal values may be shown once.
# Key:
# Format in all cases: cell-based
# [1] = target: T1, DRD2 S1945.43G (Homo sapiens, UniProt P14416, S194G); assay: Gαi/o-mediated cAMP inhibition (GloSensor), mutant; conditions: DRD2 Ser5.43Gly; G-protein assay
# T1 construct: expressed in transfected cells; host or cells: HEK293T (ATCC CRL-11268)
# T1 sequence (P14416 whole entry S194G): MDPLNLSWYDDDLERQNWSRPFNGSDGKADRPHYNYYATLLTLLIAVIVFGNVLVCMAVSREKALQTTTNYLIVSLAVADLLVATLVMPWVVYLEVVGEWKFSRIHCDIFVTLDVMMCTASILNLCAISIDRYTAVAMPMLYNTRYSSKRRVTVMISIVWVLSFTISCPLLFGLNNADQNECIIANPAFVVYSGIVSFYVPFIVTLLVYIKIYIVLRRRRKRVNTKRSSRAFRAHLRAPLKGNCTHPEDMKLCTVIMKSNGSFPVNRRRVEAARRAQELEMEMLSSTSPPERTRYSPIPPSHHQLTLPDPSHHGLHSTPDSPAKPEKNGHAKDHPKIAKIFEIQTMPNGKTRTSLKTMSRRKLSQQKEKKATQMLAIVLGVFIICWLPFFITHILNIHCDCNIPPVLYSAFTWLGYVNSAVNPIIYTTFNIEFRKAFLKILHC
# [2] = target: DRD5 (Homo sapiens, UniProt P21918); assay: β-arrestin2 recruitment (Tango); conditions: Fig_S10e, single replicates
# Sequence of DRD5 (P21918 whole entry): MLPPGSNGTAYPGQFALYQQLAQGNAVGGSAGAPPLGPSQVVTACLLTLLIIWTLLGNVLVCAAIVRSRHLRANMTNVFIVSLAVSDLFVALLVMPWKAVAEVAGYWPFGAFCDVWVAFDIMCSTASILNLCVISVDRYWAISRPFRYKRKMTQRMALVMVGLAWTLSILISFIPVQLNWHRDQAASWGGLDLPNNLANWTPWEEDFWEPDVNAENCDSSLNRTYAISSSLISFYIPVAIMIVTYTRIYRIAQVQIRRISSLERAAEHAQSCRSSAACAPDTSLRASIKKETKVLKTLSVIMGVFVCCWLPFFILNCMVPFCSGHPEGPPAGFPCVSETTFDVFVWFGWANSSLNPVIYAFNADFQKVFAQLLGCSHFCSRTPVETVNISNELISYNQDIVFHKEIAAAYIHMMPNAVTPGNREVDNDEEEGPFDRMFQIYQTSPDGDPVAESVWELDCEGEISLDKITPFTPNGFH
# [3] = target: T2, 5HT6 (Homo sapiens, UniProt P50406); assay: β-arrestin2 recruitment (Tango); conditions: Fig_S10p, agonist mode
# T2 construct: expressed in transfected cells; host or cells: HTLA cells expressing TEV-fused β-arrestin2
# T2 sequence (P50406 whole entry, the tested form may be a part): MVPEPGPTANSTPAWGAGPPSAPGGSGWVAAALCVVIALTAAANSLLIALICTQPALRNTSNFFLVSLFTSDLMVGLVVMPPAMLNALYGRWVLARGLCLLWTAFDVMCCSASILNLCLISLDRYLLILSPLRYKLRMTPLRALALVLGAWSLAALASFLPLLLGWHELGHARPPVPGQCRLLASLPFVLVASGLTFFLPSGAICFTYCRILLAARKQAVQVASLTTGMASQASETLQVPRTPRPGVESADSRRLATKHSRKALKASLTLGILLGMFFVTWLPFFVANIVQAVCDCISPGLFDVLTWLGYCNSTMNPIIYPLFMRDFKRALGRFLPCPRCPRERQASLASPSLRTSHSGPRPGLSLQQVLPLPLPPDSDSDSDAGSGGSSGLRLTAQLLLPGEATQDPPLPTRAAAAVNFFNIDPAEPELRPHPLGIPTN
# [4] = target: T3, 5HT7A (Homo sapiens, UniProt P34969); assay: β-arrestin2 recruitment (Tango); conditions: for β-arrestin2 recruitment response, replicate points of concentration-response curve: Fig_S10q, agonist mode
# T3 construct: expressed in transfected cells; host or cells: HTLA cells expressing TEV-fused β-arrestin2
# T3 sequence (P34969 1-445 isoform P34969-2): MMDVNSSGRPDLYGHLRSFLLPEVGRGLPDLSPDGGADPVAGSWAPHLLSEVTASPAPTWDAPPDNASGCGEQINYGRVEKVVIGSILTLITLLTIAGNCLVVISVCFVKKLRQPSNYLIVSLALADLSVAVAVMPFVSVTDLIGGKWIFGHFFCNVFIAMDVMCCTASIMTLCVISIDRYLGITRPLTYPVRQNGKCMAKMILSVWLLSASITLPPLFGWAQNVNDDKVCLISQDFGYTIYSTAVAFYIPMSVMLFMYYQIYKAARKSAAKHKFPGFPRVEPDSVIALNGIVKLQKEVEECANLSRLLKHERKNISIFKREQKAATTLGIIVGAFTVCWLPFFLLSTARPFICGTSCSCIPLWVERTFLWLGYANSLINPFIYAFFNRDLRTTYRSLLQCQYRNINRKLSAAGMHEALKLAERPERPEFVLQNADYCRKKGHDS
compound,measurement,setting,value
CCOc1cccc2cc([C@H](C)NCC3(O)CCCCC3)oc12 [O4SE6],agonism after serine to glycine substitution,[1],impaired
same,"β-arrestin2 recruitment response, agonist mode (normalized)",[2]; Log[Drug] -6.52,-0.08982
same,"β-arrestin2 recruitment response, agonist mode (normalized)",[2]; Log[Drug] -7,-2.193 and 0.1162 and 2.002 and 1.631 and 1.978 and 0.5459 and 0.4001 and 1.786 and 0.382
same,"β-arrestin2 recruitment response, agonist mode (normalized)",[2]; Log[Drug] -7.52,-0.08982 and 3.931 and 2.6523 and 1.599 and 1.463 and 1.719 and -0.1199 and 3.905 and 0.3346
same,"β-arrestin2 recruitment response, agonist mode (normalized)",[2]; Log[Drug] -8,-0.07925 and -1.147 and -0.7291 and 1.435 and 1.941 and 1.528 and 1.952 and 2.3308 and 0.6078
same,"β-arrestin2 recruitment response, agonist mode (normalized)",[2]; Log[Drug] -8.52,-0.1004 (2×) and 1.601 and 1.441 and 1.882 and 1.748 and 1.175 and 1.334 and 1.6784
same,"β-arrestin2 recruitment response, agonist mode (normalized)",[2]; Log[Drug] -9,3.899 and 5.394 and 1.786 and 1.099 and 0.04193 and 2.45 and 0.1533 and 0.5646 and 0.6189
same,"β-arrestin2 recruitment response, agonist mode (normalized)",[2]; Log[Drug] -9.52,2.219 and 0.0951 and 1.997 and 0.5791 and 1.124 and 2.067 and 5.639 and 0.941 and -0.06273
same,"β-arrestin2 recruitment response, agonist mode (normalized)",[2]; Log[Drug] -10,-0.7133 and 0.5389 and 5.595 and 1.6 and 2.167 and 2.288 and 0.7068 and 0.5423 and 3.676
same,"β-arrestin2 recruitment response, agonist mode (normalized)",[2]; Log[Drug] -10.52,0.1321 and 0.1268 and 0.9299 and 1.442 and 0.235 and 1.403 and 0.9967 and 3.2411 and 1.093
same,"β-arrestin2 recruitment response, agonist mode (normalized)",[2]; Log[Drug] -11,0.1268 and 0.1004 and 7.307 and 0.5831 and 0.6598 and 1.285 and 1.949 and 0.03067 and 2.569
same,"β-arrestin2 recruitment response, agonist mode (normalized)",[2]; Log[Drug] -11.52,3.508 and 1.358 and 1.781 and 0.8196 and 0.1076 and 1.003 and 0.8127 and 3.51 and 1.499
same,"β-arrestin2 recruitment response, agonist mode (normalized)",[2]; Log[Drug] -12,-0.3064 and 5.8435 and 1.717 and 0.4312 and 3.455 and 0.3038 and 0.3541 and 3.032 and 0.3527
same,"β-arrestin2 recruitment response, replicate points of concentration-response curve",[3]; Log[Drug] -6,-0.3035
same,"β-arrestin2 recruitment response, replicate points of concentration-response curve",[3]; Log[Drug] -6.52,1.0135 and 1.198 and 5.246 and -9.543 and -10.288 and -8.77 and 1.1615 and -3.588 and -1.1467
same,"β-arrestin2 recruitment response, replicate points of concentration-response curve",[3]; Log[Drug] -7,1.87 and 1.848 and 8.574 and -11.7696 and -2.512 and -8.797 and 0.1776 and -4.113 and -5.009
same,"β-arrestin2 recruitment response, replicate points of concentration-response curve",[3]; Log[Drug] -7.52,1.593 and -0.504 and 0.09756 and -12.1009 (2×) and -11.7328 and 60.6717 and -4.6608 and -1.753
same,"β-arrestin2 recruitment response, replicate points of concentration-response curve",[3]; Log[Drug] -8,1.669 and -1.382 and -0.2872 and -13.1683 and -12.0825 and -9.524 and -3.196 and -2.353 and 1.768
same,"β-arrestin2 recruitment response, replicate points of concentration-response curve",[3]; Log[Drug] -8.52,0.775 and 4.666 and 0.9864 and -12.4781 and -7.656 and -12.1009 and 0.3255 and -3.854 and 3.566
same,"β-arrestin2 recruitment response, replicate points of concentration-response curve",[3]; Log[Drug] -9,2.499 and 9.663 and 0.775 and -0.2945 and -9.561 and -9.543 and -2.049 and -4.424 and -4.173
same,"β-arrestin2 recruitment response, replicate points of concentration-response curve",[3]; Log[Drug] -9.52,-0.09214 and 0.5474 and -0.9647 and -12.1929 and -11.3831 and -2.5214 and -5.0455 and -0.3107 and 5.623
same,"β-arrestin2 recruitment response, replicate points of concentration-response curve",[3]; Log[Drug] -10,3.149 and 2.721 and -0.1138 and 8.135 and -9.598 and -12.4689 and 1.768 and 2.893 and -2.7151
same,"β-arrestin2 recruitment response, replicate points of concentration-response curve",[3]; Log[Drug] -10.52,2.504 and 5.311 and 0.7425 and -10.7297 and -3.616 and -12.1193 and -4.52 and 13.3166 and 0.2515
same,"β-arrestin2 recruitment response, replicate points of concentration-response curve",[3]; Log[Drug] -11,0.5474 and 6.401 and -0.2981 and -6.662 and -9.929 and -5.0796 and -2.915 and -3.588 and -2.353
same,"β-arrestin2 recruitment response, replicate points of concentration-response curve",[3]; Log[Drug] -11.52,1.409 and 4.46 and -0.7262 and -4.371 and -12.837 and -12.1009 and -3.803 and -3.24 and -3.847
same,concentration at which the receptor is activated,"[4]; 5HT7A, agonist activity only at high concentrations",over 1 μM
same,"β-arrestin2 recruitment response, replicate points of concentration-response curve",[4]; Log[Drug] -8.52,-17.0653 and -8.2658 and 45.2148 and -20.2418 and -21.803 and -0.7194 and -2.896 and -5.6 and 11.1273 and 4.271 and -5.097 and 41.8171
same,"β-arrestin2 recruitment response, replicate points of concentration-response curve",[4]; Log[Drug] -9,-5.443 and 2.933 and -8.226 and -2.556 and -7.477 and 46.4452 and 15.6099 and 24.9983 and 34.962 and -18.0177 and 28.5192 and 18.5487
same,"β-arrestin2 recruitment response, replicate points of concentration-response curve",[4]; Log[Drug] -9.52,-12.1477 and -17.9982 and -14.9702 and 11.6094 and 28.1779 and -35.8001 and 6.565 and -15.7686 and -5.626 and -8.555 and 44.6962 and -16.9086
same,"β-arrestin2 recruitment response, replicate points of concentration-response curve",[4]; Log[Drug] -10,8.096 and 0.4862 and 3.854 and 5.12 and -39.6418 and 11.9538 and 0.1785 and 14.2612 and 32.5752 and 35.9646 and 2.796 and -2.0885
same,"β-arrestin2 recruitment response, replicate points of concentration-response curve",[4]; Log[Drug] -10.52,-7.874 and -13.6459 and -8.622 and -2.931 and 11.0507 and -27.4126 and -0.1587 and -15.0413 and -19.8744 and -43.7994 and 23.1032 and 11.941
same,"β-arrestin2 recruitment response, replicate points of concentration-response curve",[4]; Log[Drug] -11,-18.3698 and 12.5825 and -5.609 and -19.6985 and -4.821 and 50.3406 and -7.299 and -5.302 and 7.068 and 22.7847 and 5.345 and 29.9587
same,"β-arrestin2 recruitment response, replicate points of concentration-response curve",[4]; Log[Drug] -11.52,-11.7405 and -3.06 and 5.3959 and -7.492 and 32.3027 and 44.3713 and -10.4331 and 15.1471 and 38.5521 and -11.882 and -21.4277 and -18.6431
same,"β-arrestin2 recruitment response, replicate points of concentration-response curve",[4]; Log[Drug] -12,-10.8669 and -8.214 and -4.091 and -12.7879 and 18.5659 and 87.5029 and 6.479 and 24.6612 and 1.765 and 32.6018 and 45.9115 and -9.546
